The test system of experiment [1] is actin system in MDA-MB-231 cells. Briefly: Actin immunofluorescence in MDA-MB-231 cells. The format is cell-based, human. As to conditions: MDA-MB-231, 24 h; compounds at their IC50 values, LA 0.1 µM. The procedure:
In order to determine whether the lead compounds 3 and 4 may effectively regulate the actin system, we employed both the immunofluorescence and in vitro direct enzymatic assays. […] As negative and positive controls, we used the only vehicle (DMSO) and latrunculin A (LA) at a concentration of 0.1 µM, respectively. After processing, the cells were observed under a fluorescent microscope, (see experimental section for the details). […] Moreover, the latter looked brighter and stocked in the cytoplasm in dot-like structures or thicker fibers. Again, the MDA-MB-231 cells, under exposure to compounds 3 and 4, lost their shape (Figure 4, compounds 3 and 4, panels B), as we observed under LA treatment, and with a very similar arrangement of the actin network.
The cells were plated and further processed, as previously indicated. Specifically, the rabbit anti-β-Actin (Santa Cruz Biotechnology, Dallas, TX, USA), diluted 1:100 in bovine serum albumin (BSA) 2%, was used as primary antibody and incubated overnight at 4 °C. The secondary antibody, Alexa Fluor® 488 conjugate goat-anti-rabbit, was diluted 1:500 and incubated for 2 h at 37 °C. DAPI (4′,6-diamidino-2-phenylindole, Sigma Aldrich, Milan, Italy) 0.2 μg/mL was used for nuclei staining. A fluorescence microscope (Leica DM 6000) was utilized for fluorescence detection (40× magnification). LAS-X software allowed acquiring and processing all the fluorescence images, which are representative of three separate experiments.

Experiment [2] deals with T1, labeled rabbit muscle actin (Oryctolagus cuniculus, UniProt P68135).
T1 construct: fluorescent label (chemical); purchased Abcam; host or cells: rabbit muscle
Briefly: In vitro actin polymerization assay. The format is biochemical. As to conditions: 5 µM, 1 h, room temperature; vehicle plateau about 25,000 RFU. The text has this: With the aim to confirm the immunofluorescence results and substantiate whether compounds 3 and 4 could inhibit the actin polymerization mechanism and/or boost the F-actin depolymerization, we employed a fluorescent-labeled purified rabbit actin. LA and cytochalasin B (CB) were used as positive controls for both the polymerization inhibition and F-actin subunits dissociation, or only the polymerization inhibition, respectively. In the negative control reaction (only vehicle), actin monomers undergo a normal polymerization, as visible in Figure 5, panel A. The reaction curve rises in approximately 5 min to a value of about 25,000 RFU (plateau) which remains almost unvaried until the end of the experiment. Contrariwise, the two reference molecules, i.e., LA and CB, used at the concentration of 5 µM, braked the actin polymerization, mostly LA rather than CB, under the adopted experimental conditions, and the LA curve dropped until a value of about 8000 RFU at the reaction end.
(§1) An Actin Polymerization/Depolymerization Assay Kit, purchased from Abcam, was employed to assess the ability of compounds 3 and 4 to interfere with the actin polymerization and depolymerization processes. To perform the essays, the manufacturer’s instructions were followed with some modifications. In particular, polymerization assay was carried out incubating in a white 96-well plate the reconstituted actin with supplemented Buffer G, compounds 3 and 4 and then Buffer P was added in order to induce actin polymerization. For the Actin Depolymerization Assay, the actin polymerization was first induced, incubating supplemented Buffers P and G at room temperature for one hour. Then, compounds 3 and 4 were added at a concentration of 5 μM. Latrunculin A (LA) and Cytochalasin B (CB) were utilized as positive control at a concentration of 5 μM. For both the assays, the assemblage of the actin filaments was defined by measuring the fluorescence (Ex/Em: 365/410 nm) in kinetic mode for 1 h at room temperature in a microplate reader.

Experiment [3] concerns the target T2, F-actin (labeled rabbit muscle actin) (Oryctolagus cuniculus, UniProt P68135).
T2 construct: fluorescent label (chemical); purchased Abcam; host or cells: rabbit muscle
Briefly: In vitro F-actin depolymerization assay. As to conditions: 5 µM added after 1 h polymerization, monitored 1 h; vehicle 20,000 RFU. The class given is biochemical. Here is the method:
Moreover, we performed the F-actin depolymerization assay to verify whether compounds 3 and 4 could induce the actin depolymerization as well as the LA does (Figure 5, panel B). For this purpose, we started the actin polymerization for one hour under the same experimental conditions used previously. Then, we added the compounds or the reference molecules at the concentration of 5 µM and monitored the reactions for an additional hour. […] The addition of CB was not able to produce the same effect of LA. […] Contrarily, both the compounds were able to induce an important depolymerizing effect on the F-actin, most evident in the first 7 min after the exposure. Particularly, compounds 3 and 4 produced final values of approximately 14,000 and 12,000 RFU, respectively. […] This combined effect leads to a disorganization of the intracellular actin network.
as §1

Another experiment relates to MDA-MB-231 cells. The experiment is described as follows: TUNEL assay (apoptosis). The format is cell-based, human. As to conditions: MDA-MB-231, 24 h, concentration equal to IC50 values. The procedure:
Having individuated two intracellular targets, we wondered whether the lead compounds could induce apoptosis in MDA-MB-231 cells. Thus, we performed a TUNEL assay. […] Indeed, the exposure to both compounds produced a green nuclear fluorescence, already at 24 h, in MDA-MB-231 cells (Figure 6, 3 and 4, panels B, CF^TM488A) as a consequence of the damaged DNA. […] The overlay channel (Figure 6, panels C) is also shown.
TUNEL assay was employed to assess the cells apoptosis, following the manufacturer’s protocols (CF™488A TUNEL Assay Apoptosis Detection Kit, Biotium, Hayward, CA, USA) with few revisions. Briefly, the cells were plated and then additional processed as previously described. DAPI (0.2 μg/mL, Sigma Aldrich, Milan, Italy) was used for nuclei staining. A fluorescence microscope (Leica DM 6000) was used for fluorescence detection (20× magnification). LAS-X software allowed acquiring and processing all the fluorescence images, which are representative of three separate experiments.

As for `Cc1ccc(C)c2c1c1cc(B(O)O)ccc1n2C(=O)OC(C)(C)C` [Compound 3], the “Effect on actin organization (immunofluorescence)” value in experiment [1] is “interfere with the normal actin organization”. In addition, the “Actin polymerization, final fluorescence value of reaction curve” value in experiment [2] was “about 13,000 RFU”. For the same molecule, in experiment [3], the “F-actin depolymerization, final fluorescence value of reaction curve” value is reported as “approximately 14,000 RFU”. In the experiment on MDA-MB-231 cells, the “Apoptosis induction (TUNEL, green nuclear fluorescence)” value is “able to trigger apoptosis”.
For `Cc1ccc(C)c2c1c1cc(O)ccc1n2C(=O)OC(C)(C)C` [Compound 4] the same measures were “interfere with the normal actin organization”, “around 16,000 RFU”, ~12,000 RFU and “able to trigger apoptosis”.
